PubChem BioAssay (NCI)
Several values for one entry are separate records, joined by “and”; a condition that tells them apart may be missing. Equal entries are not always repeated.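 Growth conditions: 96-well plates. Treatment: test compound, 48 hours, 5 concentrations. Analysis: linear interpolation between bracketing concentrations; unreached endpoints set to highest concentration. GI50 is the concentration that inhibits growth by half. Definition used: TGI = concentration required for complete inhibition of growth.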

Key:
Experiment in all cases: NCI anticancer screen, dose series, 48 h
TK-10 renal = system: TK-10 renal
MALME-3M melanoma = system: MALME-3M melanoma
CCRF-CEM leukemia = system: CCRF-CEM leukemia
NCI-H460 lung = system: NCI-H460 lung
UACC-257 melanoma = system: UACC-257 melanoma
SR leukemia = system: SR leukemia
IGROV1 ovarian = system: IGROV1 ovarian
OVCAR-3 ovarian = system: OVCAR-3 ovarian
MOLT-4 leukemia = system: MOLT-4 leukemia
KM12 colon = system: KM12 colon

SMILES	TGI (TK-10 renal)	TGI (MALME-3M melanoma)	TGI (CCRF-CEM leukemia)	TGI (NCI-H460 lung)	TGI (UACC-257 melanoma)	TGI (SR leukemia)	TGI (IGROV1 ovarian)	TGI (OVCAR-3 ovarian)	TGI (MOLT-4 leukemia)	TGI (KM12 colon)	GI50 (TK-10 renal)	GI50 (MALME-3M melanoma)	GI50 (CCRF-CEM leukemia)	GI50 (NCI-H460 lung)	GI50 (UACC-257 melanoma)	GI50 (SR leukemia)	GI50 (IGROV1 ovarian)	GI50 (OVCAR-3 ovarian)	GI50 (MOLT-4 leukemia)	GI50 (KM12 colon)
Clc1nc(Cl)c(-c2ccccc2)c(Cl)n1	22.2 µM	4.38 µM	8.28 µM	35.9 µM	7.65 µM	6.85 µM	14 µM	7.71 µM	> 100 µM	14.6 µM	–	–	–	–	–	–	–	–	–	–
O=C(CCc1cc(-c2ccccc2)nc(=S)[nH]1)Nc1ccccc1[N+](=O)[O-]	> 100 µM	> 100 µM	> 100 µM	> 100 µM	> 100 µM	> 100 µM	> 100 µM	> 100 µM	> 100 µM	> 100 µM	–	–	–	–	–	–	–	–	–	–
Nc1nc(N)c(N=O)c(OCC2CCCCC2)n1	57 µM and 34.5 µM	36.8 µM and 52.7 µM	> 100 µM	> 80.5 µM and 38.1 µM	> 100 µM and 38.9 µM	> 85.9 µM and 27.4 µM	24.1 µM and 24.5 µM	64.7 µM and 61.5 µM	> 100 µM and 51 µM	> 100 µM	15.9 µM	3.06 µM and 7.32 µM	8.83 µM	8.93 µM	17.2 µM	6220 nM	3.69 µM	7.37 µM	7650 nM	–
CS/C(=N\c1nccs1)NC(=O)c1cccc(Cl)c1	> 100 µM	> 100 µM	> 100 µM	> 100 µM	> 100 µM	> 100 µM	> 100 µM	> 100 µM	89.6 µM	> 100 µM	–	–	–	–	–	–	–	–	–	–
O=C(c1cccnc1)c1cc(-c2ccccn2)c(=O)n2ccccc12	> 100 µM	> 100 µM	> 100 µM	> 100 µM	> 100 µM	> 100 µM	> 100 µM	> 100 µM	> 100 µM	> 100 µM	> 100 µM	> 100 µM	> 100 µM	> 100 µM	> 100 µM	> 100000 nM	> 100 µM	> 100 µM	> 100000 nM	> 100000 nM
OCC1OC(n2cnc3c(=S)nc[nH]c32)C(O)C1O (centres undefined)	> 2500 µM	2480 µM and > 100 µM	> 2500 µM	> 2500 µM	> 2500 µM	> 2500 µM	2490 µM and > 100 µM	> 2500 µM	> 2500 µM	> 2500 µM	4.37 µM	> 30 µM	3.35 µM	7.72 µM	> 100 µM	–	12.2 µM	–	2580 nM	7460 nM
O=C(CCCSc1nc(-c2ccccc2)cc(-c2ccc(Cl)cc2)n1)NO	12.3 µM	12.1 µM	13 µM	7.29 µM	12.4 µM	13.2 µM	11.7 µM	9.38 µM	10.6 µM	14.2 µM	0.773 µM	2.7 µM	0.882 µM	0.558 µM	2.92 µM	364 nM	2.08 µM	0.675 µM	1510 nM	2960 nM
O=C(CN1CCN(c2ccccc2)CC1)N1CCN(c2nnc(-c3ccc(Cl)cc3)c(-c3ccc(Cl)cc3)n2)CC1	> 100 µM	> 100 µM	> 100 µM	> 100 µM	> 100 µM	6.62 µM	40.8 µM	41.3 µM	9.97 µM	> 100 µM	5.97 µM	9.35 µM	8.08 µM	7.92 µM	14.7 µM	1700 nM	6.5 µM	7.24 µM	1630 nM	5400 nM
CCN(CC)c1ccc(C(=N)c2ccc(N(C)C)cc2)cc1	8.02 µM	4.76 µM	97.8 µM	10.8 µM	5.11 µM	2.8 µM	13 µM	4.07 µM	4.55 µM	4.05 µM	2.41 µM	0.205 µM	1.96 µM	1.69 µM	1.36 µM	301 nM	0.949 µM	0.156 µM	1170 nM	171 nM
c1ccc(CSc2nnc3c4ccccc4c4ccccc4c3n2)cc1	84.5 µM	> 100 µM	72.5 µM	> 100 µM	> 100 µM	> 100 µM	> 46.6 µM	> 70.9 µM	> 100 µM	> 100 µM	–	–	–	–	–	–	–	–	–	–
c1ccc(P(CCP(CCP(c2ccccc2)c2ccccc2)c2ccccc2)CCP(c2ccccc2)c2ccccc2)cc1 (centres undefined)	> 10 µM	> 10 µM	> 10 µM	3.12 µM	> 10 µM	> 10 µM	> 10 µM	> 10 µM	5.85 µM	> 10 µM	–	–	–	–	–	–	–	> 10 µM	–	> 10000 nM and 1390 nM
Nc1n[nH]c2ccc([C@@H]3Nc4ccc5[nH]ncc5c4[C@H]4C5C=CC(C5)[C@@H]34)cc12 (some centres undefined)	> 100 µM	35.3 µM	> 55.6 µM	11.4 µM	58.5 µM	> 100 µM	24.9 µM	4.23 µM	40.7 µM	11.4 µM	12 µM	0.655 µM	0.342 µM	0.365 µM	12.5 µM	144 nM	0.497 µM	0.291 µM	433 nM	390 nM
